Reference: US20200131473A1, “METHOD OF GENERATING 2 CELL-LIKE STEM CELLS” (IFOM FONDAZIONE ISTITUTO FIRC DI ONCOLOGIA MOLECOLARE, priority 2017, published 2020)
Entries after “also recorded” stand apart in the source; their conditions may differ.

Columns and labels:
[1] = tested on: pZscan4-Emerald ESCs; experiment: FACS analysis of Zscan4-Emerald ESCs (Emerald-GFP positive cells); assay type: cell-based, mouse; conditions: for elevated expression of 2C-like specific genes (Zscan4, MERVL) upon APH and HU treatment: inhibitor added under replication stress, flow cytometry and immunoblot
Method: All treatments including APH, HU, UV, ATRi, ATMi and Chk1i were added in to fresh ESC medium and the cells were kept in 37° C. and 3% 02 tension for overnight (16-17 hrs) unless mentioned in each particular result section. APH was used at various concentrations ranging from 0.3 uM to 6 uM that is mentioned in each experiment in order to induce mild to acute replication stress response. Similarly, HU was used at 0.1 mM-3 mM. ATMi (KU-55933) and ATRi (VE 822) were used at the concentration of 10 uM and 1 uM respectively. Moreover, Chk1i (UCN-01) at the concentration of 100 nM was used. UV radiation was performed at the dosage ranging from 2 to 10 J/m2. For induction of ETAA1-AAD expression, Dox was used at the concentration of 1 μg/mL for 48 hrs.
ESCs were fixed and permeabilized using Cytoperm/Cytofix kit (BD Biosciences), and subsequently stained for one hour at room temperature with Alexa Fluor® 647 anti-H2AX-Phosphorylated (Ser139) antibody (Biolegend) or P-CHK1-PE conjugated antibody (cell signaling 12268). Cells were washed and acquired on a FACS Calibur instrument or Attune NxT (Thermo Fisher Scientific). For Emerald-GFP acquisition, cells were trypsinized, collected and subsequently acquired without fixation. Cell cycle profiles were acquired after incubation with DAPI (4′,6-diamidino-2-phenylindole) overnight. For Caspase3 FACS analysis after fixation and permeabilization, Cleaved Caspase3 antibody were used for one hr at RT followed by washes and one hr incubation in donkey anti rabbit secondary antibody. […]

[2] = tested on: ESC lines E14, R1 and MC1; experiment: High-throughput transcriptional profiling (RNA sequencing) of ESC lines E14, R1 and MC1; assay type: cell-based, mouse
Method: RNA samples were quantified using Qubit 2.0 Fluorometer (Life Technologies, Carlsbad, Calif., USA) and RNA integrity was checked with RNA Screen Tape on Agilent 2200 TapeStation (Agilent Technologies, Palo Alto, Calif., USA). […] RNA sequencing library preparation was prepared using Ribo-Zero rRNA Removal Kit and TruSeq Stranded Total RNA library Prep kit following manufacturer's protocol (Illumina, Cat # RS-122-2101). Briefly, rRNA was depleted with Ribo-Zero rRNA Removal Kit. rRNA depleted RNAs were fragmented for 8 minutes at 94° C. First strand and second strand cDNA were subsequently synthesized. The second strand of cDNA was marked by incorporating dUTP during the synthesis. cDNA fragments were adenylated at 3′ends, and indexed adapter was ligated to cDNA fragments. Limited cycle PCR was used for library enrichment. The incorporated dUTP in second strand cDNA quenched the amplification of second strand, which helped to preserve the strand specificity. Sequencing libraries were validated using DNA Analysis Screen Tape on the Agilent 2200 TapeStation (Agilent Technologies, Palo Alto, Calif., USA), and quantified by using Qubit 2.0 Fluorometer (Invitrogen, Carlsbad, Calif.) as well as by quantitative PCR (Applied Biosystems, Carlsbad, Calif., USA).
The sequencing libraries were multiplexed and clustered on 1 lane of flowcell. […] On average ˜29 million reads were generated for a sample and average insert size ranged between 204-231 for the samples.
Transcript and gene level quantification was done with Kallisto (version 0.43.0)^16. […] Additionally, all reads were mapped with the STAR spliced aligner (version 2.5.2b)^17 to the GRCm38 (mm10) genome after trimming the reads to 100 bp with Trimmomatic (version 0.36)^18. Repeat expression was quantified by counting fragments overlapping with the repeat annotation from the Choi et al. 2017 paper, with using FeatureCounts from the subread package (version 1.5.2)^19. […]
Read counts for each sample estimated by Kallisto were imported into the R statistical environment (version 3.2.2) using tximport (version 1.1.2)^20. […]

Structure (SMILES) | number of Emerald-GFP positive (Em+) ESCs ([1]; RS inducing agents, dose-dependent, qPCR and FACS) | downregulated genes ([2]; APH treatment, FDR<0.05) | upregulated genes with more than two-fold change ([2]; APH treatment, FDR<0.05) | elevated expression of 2C-like specific genes (Zscan4, MERVL) upon APH and HU treatment [1] | elevated expression of 2C-like specific genes (Zscan4, MERVL) upon APH and HU treatment ([1]; listed as ATR inhibitor) | number of Zscan4-Emerald positive cells ([1]; normal culture condition, ATRi 1 uM, ATMi 10 uM) | genes shared between APH and DUX-induced condition rescued ([2]; APH plus ATRi)
C[C@@]1(CO)[C@H](O)CC[C@@]2(C)[C@H]1CC[C@H]1C[C@@H]3C[C@@]12CC[C@]3(O)CO [APH, aphidicolin] | significant increase | 640 genes | 3074 genes |  |  |  | 
CNCc1ccc(-c2cc(-c3nc(-c4ccc(S(=O)(=O)C(C)C)cc4)cnc3N)on2)cc1 [VE 822] |  |  |  | robustly revert | robustly suppress | markedly reduce; also recorded: marked reduction | 71%
